According to patent publication US8138309B2, “Modified rubisco large subunit n-methyltransferase useful for targeting molecules to the active-site vicinity of ribulose-1,5-bisphosphate” (University of Kentucky Research Foundation, priority 2008, dated 2012):

Target: T1, spinach Rubisco (Spinacia oleracea, UniProt P00875)
T1 construct: Spinach and pea Rubisco, and pea Rubisco LSMT were purified according to McCurry; from tissue
Assay: Rubisco carboxylase assay (14CO2 fixation, O2-free, CO2-free buffers), spinach Rubisco
Format: biochemical
Settings: added to the Rubisco complex containing bound CA before the assay; AdoMet 100 μM
Protocol: Kinetic analyses were performed as described previously for Rubisco Lorimer, G. H., Badger, M. R., and Andrews, T. J. Biochemistry 15, 529-536.1976. Pierce, J. W., McCurry, S. D., Mulligan, R. M., and Tolbert, N. E. Methods Enzymol. 89 Pt D, 47-55.1982. Assays were conducted under O2 free conditions with CO2-free buffers as described below, and contained normalized Rubisco and hCAII activities, unless otherwise indicated. The assays contained, unless otherwise indicated, 100 mM Bicine adjusted to pH 8.2 with a saturated NaOH solution, 20 mM MgCl2, 2 mM dithiothreitol, 0.5 mM RuBP, and NaH^14 CO3 (1.0 mCi/mmol). Reactions were initiated by the addition of activated Rubisco, or conjugate, injected into an 8 mL serum capped vial (first flushed with nitrogen). Activation of Rubisco or conjugate was performed at 2 mg/mL by incubation at 30 C for 15 min in 50 mM Bicine, pH 8.2, containing 20 mM MgCl2 and 15 mM NaH^14CO3. Assay times, enzyme masses, volumes, or specific activities were adjusted to limit substrate consumption to 10% or less. The assays were terminated by the addition by 2N HCl (0.4 volumes), and the liquid evaporated to dryness under a stream of air at 50° C. Radioactivity was determined with a liquid scintillation analyzer (Packard 2000 CA), after addition of 0.5 mL H20 and 4.5 mL of cocktail (Bio-Safe II, RPI). […]

effect on the stimulation of carboxylase activity by bound CA: the effect of bound CA was abolished
SMILES: C[S+](CC[C@H](N)C(=O)[O-])C[C@H]1O[C@@H](n2cnc3c(N)ncnc32)[C@H](O)[C@@H]1O (stereo partly shown) [AdoMet, S-adenosylmethionine]
